Results published in PubChem BioAssay (NCI).
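Following 48 hours of exposure in 96-well plates, responses at five concentrations were used to interpolate endpoints linearly. At the GI50, growth is halved. The concentration for full growth arrest is given as TGI.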

What was measured:
Assay in all cases: inhibition of tumour cell growth, NCI panel, 48 h
[1] = tested on: HCC-2998 colon
[2] = tested on: M14 melanoma
[3] = tested on: OVCAR-4 ovarian
[4] = tested on: RPMI-8226 leukemia
[5] = tested on: SF-295 CNS
[6] = tested on: SW-620 colon
[7] = tested on: TK-10 renal
[8] = tested on: U251 CNS

SMILES | TGI [1] | TGI [2] | TGI [3] | TGI [4] | TGI [5] | TGI [6] | TGI [7] | TGI [8] | GI50 [1] | GI50 [2] | GI50 [3] | GI50 [4] | GI50 [5] | GI50 [6] | GI50 [7] | GI50 [8]
COC(=O)c1nn(C(=N)c2ccc(Cl)cc2)c2c1CCCCC2 | > 100 µM | > 100 µM | > 100 µM | > 100 µM | > 100 µM | > 100 µM | > 100 µM | > 100 µM |  |  |  |  |  |  |  | 
CCOC(=O)/C(C#N)=C(N)/C(=N\Nc1cccc(C(F)(F)F)c1)C(=O)OCC | > 100 µM | > 100 µM | > 100 µM | > 100 µM | > 100 µM | > 100 µM | > 100 µM | > 100 µM |  |  |  |  |  |  |  | 
O=c1cccccc1NCCNc1cccccc1=O |  | > 100 µM | > 100 µM | > 100 µM | > 100 µM | > 100 µM |  | > 100 µM |  |  |  |  |  |  |  | 
CNC(C)Cc1ccc(O)cc1 (stereo not given) | > 100 µM | > 100 µM | > 100 µM | > 100 µM | > 100 µM | > 100 µM | > 100 µM | > 100 µM |  |  |  |  |  |  |  | 
N[C@H](C(=O)O)[C@@H](Cl)CC(=O)O | > 100 µM | > 100 µM | > 100 µM | > 100 µM | > 100 µM | > 100 µM | > 100 µM | > 100 µM |  |  |  |  |  |  |  | 
[N-]=[N+]=Nc1c(Br)c(=O)[nH]c(=O)n1COCCO | > 100 µM | > 100 µM | > 100 µM |  | > 100 µM | > 100 µM | > 100 µM | > 100 µM |  |  |  |  |  |  |  | 
C/C=C/C(=O)[O-].N.N.N.N.N.[Co+3].[O-][Cl+3]([O-])([O-])[O-] | > 100 µM | > 100 µM | > 100 µM | > 100 µM | > 100 µM | > 100 µM | > 100 µM | > 100 µM | > 100 µM | > 100 µM | > 100 µM | > 100 µM | > 100 µM | > 100 µM | > 100 µM | > 100 µM
COc1cc2c3c(c1OC)Oc1ccc(cc1)CC1c4c(cc(OC)c(OC)c4Oc4ccc(cc4)CC3N(C)CC2)CCN1C (stereo not given) | 28 µM | 33.2 µM | 36.3 µM | 70.4 µM | 36.1 µM | 30.4 µM | 46.1 µM | 30.8 µM |  |  |  |  |  |  |  | 
O=C1C2=C(c3ccccc31)C(c1ccc(Cl)cc1)NC(=S)N2 (stereo not given) |  | 54.6 µM | 37.8 µM | 52.8 µM | 29.9 µM | 40.5 µM | 48.9 µM | 33.6 µM |  |  |  |  |  |  |  | 
COC(=O)/C(=N/O)C(C(=O)OC)C(=O)C(=O)Nc1c(Cl)cc(C)cc1S(=O)(=O)O (stereo not given) | > 100 µM | > 100 µM | > 100 µM | 53.3 µM | > 100 µM |  | > 100 µM | > 100 µM |  |  |  |  |  |  |  | 
Cc1ccc(C)c2c1CCc1cc3ccccc3nc1-2 | > 100 µM | > 100 µM | > 100 µM | > 100 µM | > 100 µM | > 100 µM | > 100 µM | > 100 µM |  |  |  |  |  |  |  | 
Cc1cccc(O)c(=O)c1 | > 100 µM | > 100 µM | > 100 µM | 92.6 µM | > 100 µM | > 100 µM | > 100 µM | > 100 µM |  |  |  |  |  |  |  | 
COC(=O)C12C3C4C1C1C2C3C41C(=O)N(C(C)C)C(C)C (stereo not given) | > 100 µM | > 100 µM | > 100 µM |  | > 100 µM | > 100 µM | > 100 µM | > 100 µM |  |  |  |  |  |  |  | 
CC(=O)OCC(OC(C)=O)C(OC(C)=O)C(OC(C)=O)C(=O)CNn1c(-c2ccccc2Cl)nc2ccc(Br)cc2c1=O (stereo not given) |  | > 100 µM | > 100 µM | > 100 µM | > 100 µM | > 100 µM |  | > 100 µM |  |  |  |  |  |  |  | 
Cc1cc(Cl)ccc1NC(=O)CCCC(=O)C(C(=O)c1ccccc1)c1ccccc1 (stereo not given) | > 100 µM | > 100 µM | > 100 µM | > 100 µM | > 100 µM |  |  | > 100 µM |  |  |  |  |  |  |  | 
O=C(O)Cc1cc(=O)[nH]c2c1C(=O)CCC2 | > 100 µM | > 100 µM |  | > 100 µM | > 100 µM | > 100 µM | > 100 µM | > 100 µM |  |  |  |  |  |  |  | 
CC1=NN(C(=O)c2cc(Cl)cc([N+](=O)[O-])c2)C(=O)C1N=Nc1ccccc1C(=O)O (stereo not given) | > 100 µM |  |  | > 100 µM | > 100 µM | > 100 µM | > 100 µM | > 100 µM |  |  |  |  |  |  |  | 
CCC1(CC)C(=O)[N-]C(=O)[N-]C1=O.[Au+].[Au+].c1ccc([PH+](c2ccccc2)c2ccccc2)cc1.c1ccc([PH+](c2ccccc2)c2ccccc2)cc1 | 3.41 µM | 2.05 µM |  |  | 2.91 µM |  | 3.18 µM | 2.65 µM | 1.98 µM | 0.752 µM |  |  | 1.52 µM |  | 1.79 µM | 1.16 µM
COc1cc(C(=O)C/C(CCC(=O)Nc2ccc(Cl)cc2Cl)=N/Nc2nnc(C)n2N)ccc1O | > 100 µM | > 100 µM |  | > 100 µM | > 100 µM | > 100 µM | > 100 µM | > 100 µM |  |  |  |  |  |  |  | 
Cc1ccc(SCC(O)=C2C(=O)CCCC2=O)cc1 |  | > 100 µM | > 100 µM | > 100 µM | > 100 µM | > 100 µM | > 100 µM | > 100 µM |  |  |  |  |  |  |  | 
